In patent publication US4562275A, “Antitumor platinum complexes” (priority 1984, dated 1985):
Several values for one entry are separate records, joined by “and”; a condition that tells them apart may be missing. Equal entries are not always repeated.

Experiments:
ferret = test: Emetic effects (and lethality) in the ferret; type: in vivo, castrated male Fitch ferrets; conditions: 16 mg/kg iv
Description: Selected complexes were evaluated for emetic effects in ferrets. […] The time to the first emetic episode (retching and expulsion of vomitus) and the number of episodes were recorded. […] Subsequent test doses were selected based on the emetic response and lethality of the initial dose.

BDF1 mice [1] = test: Nephrotoxicity: effect on blood urea nitrogen (BUN) in BDF1 mice; conditions: for BUN↑, Mouse: effect relative to cisplatin
Description: The other compounds were in such short supply that they were tested for effects on BUN values using the optimum dose (O.D.) from the L1210 test for dose selection.
The toxicity studies were done in male BDF1 mice (25-29 gm) and castrated male Fitch ferrets (1-1.5 kg).
The complexes that were active against L1210 were evaluated for nephrotoxicity by determining their effects on blood urea nitrogen (BUN) levels in mice. Groups of 40-50 mice/experiment were bled from the retro-orbital plexus and individual BUN values determined by a modified urease method using a Centrifichem System 400. The test complex, or saline for controls, was given at several dose levels (5-10 mice/dose) in single ip injections. The highest dose of the complex usually corresponded to its LD50 value or 1.5 times its optimal single dose in the L1210 experiment. At least two lower doses were included to evaluate dose-related effects. The BUN values were measured 4 and 7 days after dosing. BUN values ≥30 mg% were considered indicative of drug-induced nephrotoxicity.

B16 melanoma = test: Antitumor activity vs ip B16 melanoma in mice; type: in vivo, mouse; set-up: O.D.: unit not given here; conditions: for O.D.: ip B16 (3×; 9×); for Max. % T/C: ip B16 (3×; 9×): q4d × 3 or qd 1-9, ip, dying mice only
From the text: (§1) The methods used to evaluate the platinum complexes for antitumor activity and toxicity in animals are summarized below. These methods have been published elsewhere in more detail (Rose, et al. Cancer Treat. Rep. 66: 135, 1982; Florczyk, et al, Cancer Treat. Rep. 66: 187, 1982).
(§2) The parent line of L1210 leukemia (L1210) was maintained in DBA/2 mice by ip transplantation of 10^5 cells at weekly intervals. […] B16 malenoma (B16) was maintained by sc transplant in C57BL/6 mice every two weeks. Madison 109 lung carcinoma (M109) and colon 26 carcinoma (C26) were maintained by sc transplant in BALB/c mice every two weeks.
(§3) The level and route of tumor inoculum, host, group size, and drug treatment schedule and route for each tumor type are summarized below in Table 6. Each complex was evaluated initially against L1210 at 4 dose levels per schedule selected on the basis of lethality data provided by the Wadley Institute.
(§4) The L1210 experiments were terminated on Day 30 whereas the B16, C26 and M109 experiments were terminated on Day 60 (some C26 experiments were terminated on Day 75). Mice alive at the termination day were autopsied and considered cured if no tumor was visible. […] A complex was considered active if it produced a % T/C value ≥125.

C26 carcinoma = test: Antitumor activity vs ip C26 (colon 26) carcinoma in mice; type: in vivo, mouse; set-up: O.D.: unit not given here; conditions: for O.D.: ip C26 (2×; 4×); for Max. % T/C: ip C26 (2×; 4×): q3d × 2 or qd 1-4, ip, dying mice only
From the text: (§5) Results of antitumor testing against the transplantable mouse tumors L1210 leukemia, cisplatin-resistant L1210 leukemia, B16 melanoma, Madison 109 lung carcinoma and colon 26 carcinoma are shown below in Tables 1 and 2.
as §1, §2
as §3, with “Institute. In subsequent experiments with the other tumors the complexes were evaluated at a minimum of 3 dose levels selected on the basis of maximum tolerated levels in the L1210 experiments. Cisplatin-treated groups and a saline-treated (or untreated) tumor control group were included in each experiment.” for “Institute.”
as §4
8 q3d^b × 2 or qd 1-4, ip

[2] = tested on: L1210/CDDP (cisplatin resistant line of L1210 leukemia); test: Antitumor activity vs cisplatin-resistant L1210 leukemia (L1210/CDDP) in mice; type: in vivo, mouse; conditions: for Max % T/C: Day 1, dying mice only
From the text: Results of antitumor testing against the transplantable mouse tumors L1210 leukemia, cisplatin-resistant L1210 leukemia, B16 melanoma, Madison 109 lung carcinoma and colon 26 carcinoma are shown below in Tables 1 and 2. […]
as §1, §2
as §3, with “Institute. In subsequent experiments with the other tumors the complexes were evaluated at a minimum of 3 dose levels selected on the basis of maximum tolerated levels in the L1210 experiments. Cisplatin-treated groups and a saline-treated (or untreated) tumor control group were included in each experiment.” for “Institute.”
as §4

M109 carcinoma = test: Antitumor activity vs ip M109 (Madison 109 lung) carcinoma in mice; type: in vivo, mouse; set-up: O.D.: unit not given here; conditions: for O.D.: ip M109 (2×; 4×); for Max. % T/C: ip M109 (2×; 4×): q3d × 2 or qd 1-4, ip, dying mice only
From the text: as §5, §1, §2
as §3, with “Institute. In subsequent experiments with the other tumors the complexes were evaluated at a minimum of 3 dose levels selected on the basis of maximum tolerated levels in the L1210 experiments. Cisplatin-treated groups and a saline-treated (or untreated) tumor control group were included in each experiment.” for “Institute.”
as §4
8 q3d^a × 2 or qd 1-4, ip

L1210 leukemia = test: Antitumor activity vs transplantable L1210 leukemia (ip) in mice; type: in vivo, mouse; conditions: for Max % T/C: dying mice only; for OD (optimum dose): optimum dose from the L1210 test
From the text: The antitumor activities of the complexes provided by the present invention have been determined against L-1210 leukemia in the mouse and, for certain of the complexes, against other mouse tumor systems.
as §5
In Table 1 are shown the maximum % T/C values obtained for each platinum compound versus L1210 leukemia using both single and qd 1→5 dosing.
as §1, §2
as §3, with “Institute. In subsequent experiments with the other tumors the complexes were evaluated at a minimum of 3 dose levels selected on the basis of maximum tolerated levels in the L1210 experiments. Cisplatin-treated groups and a saline-treated (or untreated) tumor control group were included in each experiment.” for “Institute.”
as §4

BDF1 mice [3] = test: Deaths (D.14) in the BUN test in BDF1 mice; type: in vivo, mouse
[4] = L1210, single dose Day 1, ip, (a), (b) determinations
[5] = L1210, single dose Day 1, ip, dose giving the Max % T/C, same order

Structure (SMILES)	Incidence of BUN > 30 mg % (BDF1 mice [1]; 30 mg/kg ip)	BUN↑, Mouse (BDF1 mice [1])	O.D. (B16 melanoma)	Max. % T/C (B16 melanoma)	O.D. (C26 carcinoma)	Max. % T/C (C26 carcinoma)	O.D. (optimal dose) ([2]; Day 1)	Max % T/C [2]	O.D. (M109 carcinoma)	Max. % T/C (M109 carcinoma)	O.D. (optimal dose) (L1210 leukemia; L1210, QD 1 → 5, ip)	Max % T/C (L1210 leukemia; L1210, QD 1 → 5, ip)	Max % T/C (L1210 leukemia; [4])	O.D. (optimal dose) (L1210 leukemia; [5])	OD (optimum dose) (L1210 leukemia)	Deaths D.14 (BDF1 mice [3]; 30 mg/kg ip)	other results
N[C@@H]1CCCC[C@H]1N.O=C([O-])CC(=O)C(=O)[O-].[Pt+2] (relative stereo) [Example 2, oxaloacetato trans(-)-1,2-diaminocyclohexane platinum(II)]	0/5	0	2	150%	10	143%	24 mg/kg/inj	194%	12	156%	7.5 mg/kg/inj	243%	214% and 217%	30 mg/kg/inj and 40 mg/kg/inj	30 mg/kg/ip	0/5	Emesis Episodes (ferret): 3; Emesis onset in responding animals (ferret): 41 min; No. With Emesis/No. tested (ferret; 6 h observation): 1/1; Incidence of BUN > 30 mg % (BDF1 mice [1]; 45 mg/kg ip): 0/4; Cures/total ([2]; Day 1): 4/6; Deaths D.14 (BDF1 mice [3]; 45 mg/kg ip): 1/5
CC(=O)CC(=O)[O-].CC(=O)CC(=O)[O-].N[C@@H]1CCCC[C@H]1N.[Pt+2] (relative stereo) [Example 4, bis(acetoacetato) trans(-)-1,2-diaminocyclohexane platinum(II)]	0/5	0	1	150%	5	120%	12 mg/kg/inj	163%	8	119%	5 mg/kg/inj	214%	200% and 207%	20 mg/kg/inj and 18 mg/kg/inj	20 mg/kg/ip	0/5	Incidence of BUN > 30 mg % (BDF1 mice [1]; 20 mg/kg ip): 0/5; Cures/total (L1210 leukemia; L1210, QD 1 → 5, ip): 1/6; Deaths D.14 (BDF1 mice [3]; 20 mg/kg ip): 0/5
N[C@@H]1CCCC[C@H]1N.[O]=[Cr](=[O])([O-])[O-].[Pt+2] (relative stereo) [Example 9, chromato trans(-)-1,2-diaminocyclohexane platinum(II)]	–	0	6	172%	24	106%	–	–	20	119%	6 mg/kg/inj and 12 mg/kg/inj	143% and 214%	150% and 200%	24 mg/kg/inj and 48 mg/kg/inj	48 mg/kg/ip	–	Incidence of BUN > 30 mg % (BDF1 mice [1]; 48 mg/kg ip): 0/5; Incidence of BUN > 30 mg % (BDF1 mice [1]; 72 mg/kg ip): 0/5; Deaths D.14 (BDF1 mice [3]; 48 mg/kg ip): 0/5; Deaths D.14 (BDF1 mice [3]; 72 mg/kg ip): 0/5
